Article PMC4550478, “Metronidazole-triazole conjugates: Activity against Clostridium difficile and parasites” (European Journal of Medicinal Chemistry, 2015)
≈ marks a conversion by molar mass, not a printed value.

Columns and labels:
[1] = system: C. difficile NAP1/027 CD26A54_S; assay: Metronidazole E-test on BAKHS, C. difficile CD26A54_S; format: cell-based, Clostridium difficile; details: Clostridioides difficile, BAKHS agar
Description: (§1) Mid-log phase (OD600 =0.5- 0.6) culture was diluted to a 0.5 McFarland standard (OD600~ 0.1) in prereduced broth. The diluted culture was inoculated onto duplicate BAKHS agar plate using a cotton tip applicator. The inoculum was allowed to dry before the Metronidazole E-test strip (Metronidazole MZH 256-S30, bioMérieux Australia) was placed in duplicate on the surface of the agar. The agar plate was inverted and incubated for up to 96 hr. The MIC was read as the point at which the elliptical zone of inhibition intercepted the E-test strip at 24, 48 and 96 hr.

[2] = system: C. difficile NAP1/027 CD26A54_R; assay: Metronidazole E-test on BAKHS, C. difficile CD26A54_R; format: cell-based, Clostridium difficile; details: BAKHS agar; for MIC: Clostridioides difficile
Description: as §1

[3] = system: C. difficile NAP1/027 CD26A54_R; set-up: method as in PMID 24400070; details: cited from earlier work
[4] = system: C. difficile NAP1/027 CD26A54_R; set-up: method as in PMID 24400070; details: cited from earlier work; remark: listed apart in the source
[5] = system: H. pylori clinical isolate 98/285; assay: Metronidazole E-test, H. pylori 98/285; format: cell-based; details: Helicobacter pylori
Description: (§2) Helicobacter pylori strains, with a range of resistance levels to metronidazole (256 µg/ml, 64 µg/ml, 24 µg/ml, 2 µg/ml, and 0.04 µg/ml), were selected and obtained from Helicobacter Research Laboratory, University of Western Australia. The resistance strength to metronidazole was recorded according to eTest (bioMérieux). H. pylori strain 26695 was used as the control. H. pylori was maintained on the non-selective Columbia blood agar plates (CBA) (Columbia agar base Oxoid) with 5% horse blood and incubated at 37 °C and 10% CO2 for 48 hrs. […] Each of the H. pylori strains were harvested, OD600 calibrated to 0.3, and spotted in triplicate on CBA pre-mixed with the compound. The lowest concentration of antibiotic showing no growth was read as the MIC. The experiment was performed in duplicate.

[6] = system: H. pylori clinical isolate 13/25; assay: Metronidazole E-test, H. pylori 13/25; format: cell-based; details: Helicobacter pylori
Description: as §2

[7] = in vivo; cited from earlier work
[8] = system: C. difficile NAP1/027 ATCC BAA-1803; assay: Metronidazole E-test on BAKHS, C. difficile ATCC BAA-1803; format: cell-based, Clostridium difficile; details: Clostridioides difficile, ATCCBAA1803, BAKHS agar
Description: as §1

[9] = system: 8 additional drug resistant S. aureus strains, vancomycin resistant E. faecalis, vancomycin resistant E. faecium and multidrug resistant S. pneumoniae; assay: MIC broth microdilution, drug resistant Gram-positive panel; format: cell-based; details: all strains of the panel
Description: All compounds were tested for activity against a set of anaerobic C. difficile bacteria (630 ATCC BAA-1382, NAP1/027 M7404, NAP1/027 ATCC BAA-1803, VPI10463 ATCC 43255, CD26A54_S and CD26A54_R) and representative ESKAPE pathogens S. aureus (MRSA ATCC 43300), E. coli (ATCC 25922), K. pneumoniae (ATCC 700603), A. baumannii (ATCC 19606) and P. aeruginosa (ATCC 27853) using a standard broth microdilution assay. Selected compounds were tested for activity against H. pylori strains (26695, and clinical isolates MtzS 13/25, MtzR 98/285 and MtzR 13/61) using agar plate dilution, and for antimicrobial activity against […] Gram-positive bacterial strains: Enterococcus faecalis (VanA clinical isolate), Enterococcus faecium (MDR VanA ATCC 51559), Streptococcus pneumoniae (MDR ATCC 700677), S. aureus (MRSA ATCC 43300, MRSA clinical isolate, MRSA/DRSA clinical isolate, GISA NARSA NRS 1, GISA NARSA NRS 17, VRSA NARSA VRS1, VRSA NARSA VRS4 and VRSA NARSA VRS10) using broth microdilution. C. difficile strains were grown at 37 °C in a COY anaerobic chamber (5% H2, 10% CO2, 85% N2). H. pylori strains were grown at 37 °C under a microaerobic atmosphere (5% O2, 10% CO2). All facultative anaerobic bacteria were grown at 37 °C with normal atmospheric oxygen levels. All experiments were performed in duplicate with metronidazole, vancomycin, linezolid or colistin as positive controls for relevant strains (see Table 1). Positive growth control of bacteria and DMSO as well as a negative control of only media were included for every plate. Full assay details are provided in the supplementary information.
MICs were determined by a two-fold serial broth micro dilution according to the recommendation of CLSI standards with an inoculum of 5 × 10^5 CFU/mL^4 The compounds along with standard antibiotics were serially diluted twofold across the wells of 96-well non-binding surface plates (NBS, Corning). Standards ranged from 64 to 0.03 μg/mL, and the compounds from 128 to 0.06 μg/mL with final volumes of 50 μL per well. Gram-positive and Gram-negative bacteria were cultured in Mueller Hinton broth (MHB) (Bacto laboratories, Cat. no. 211443) at 37 °C overnight. A sample of each culture was then diluted 40-fold in fresh MHB broth and incubated at 37 °C for 2-3 h. The resultant mid-log phase cultures were diluted to the final concentration of 5 × 10^5 CFU/mL, then 50 μL was added to each well of the compound containing 96-well plates. All the plates were covered and incubated at 37 °C for 24 h.

Structure (SMILES) | MIC ([1]; 24 hrs) [µg/mL] | MIC ([1]; 48 hrs) [µg/mL] | MIC ([1]; 96 hrs) [µg/mL] | Metronidazole E-test MIC CD26A54_R ([2]; 48 hrs) [µg/mL] | MIC ([2]; 24 hrs) [µg/mL] | MIC ([2]; 48 hrs) [µg/mL] | MIC ([2]; 96 hrs) [µg/mL] | Metronidazole MIC by E-test, MtzR C. difficile, reported by Chong et al. [3] [µg/mL] | MIC to metronidazole in broth, MtzR C. difficile, reported by Chong et al. [4] [µg/mL] | MIC [5] [µg/mL] | MIC [6] [µg/mL] | oral bioavailable [7] [%] | MIC ([8]; 24 hrs) [µg/mL] | MIC ([8]; 48 hrs) [µg/mL] | MIC ([8]; 96 hrs) [µg/mL] | MIC against panel of drug resistant Gram-positive strains [9] [µg/mL]
Cc1ncc([N+](=O)[O-])n1CCO [Compound 1, metronidazole] | 6 (≈ 35.1 µM) | 8 (≈ 46.7 µM) | 8 (≈ 46.7 µM) | 48 | 32 (≈ 187 µM) | 48 (≈ 280 µM) | 48 (≈ 280 µM) | > 32 | 8 (≈ 46.7 µM) | 24 (≈ 140 µM) | 2 (≈ 11.7 µM) | 100 | 2 (≈ 11.7 µM) | 2 (≈ 11.7 µM) | 2 (≈ 11.7 µM) | 
Cc1ncc([N+](=O)[O-])n1CCN=[N+]=[N-] [Compound 3, 1-(2-azidoethyl)-2-methyl-5-nitro-1H-imidazole] |  |  |  |  |  |  |  |  |  |  |  |  |  |  |  | > 64
